Reference: US20170252362A1, “METHODS & COMPOUNDS USEFUL IN HEMATOPOIETIC STEM CELL MEDICINE” (ECOLE POLYTECHNIQUE FEDERALE DE LAUSANNE (EPFL), priority 2014, published 2017)

Key:
[1] = system: hematopoietic stem and progenitor pool sizes in the bone marrow; test: Flow cytometry analysis of hematopoietic stem and progenitor pool sizes in bone marrow of mice fed the agent; type: in vivo, mouse; conditions: for number of hematopoietic stem cells (ST-HSC / most primitive HSC) by flow cytometry: Example 8, one week treatment, FIG. 9A
Protocol: Bone marrow (BM) cells were isolated from C57Bl/6J and C57Bl/6J Ly5.1 from crushed femora and tibia. Flow cytometry analysis of hematopoietic stem and progenitor cells was performed on freshly isolated bone marrow (BM). Cell suspensions were filtered through a 70 μm cell strainer and erythroid cells were eliminated by incubation with red blood cells lysis buffer (eBioscences). Lineage-positive cells were removed with a magnetic lineage depletion kit (Miltenyi Biotech). Cell suspensions were stained with a panel of specific antibodies for stem and progenitor cells and analyzed or FACS-sorted respectively on a BD LSRII and BD FACS Aria II.
(§1) C57Bl/6J and C57Bl/6J Ly5.1 were purchased from Charles River Laboratories International and maintained in micro-isolator cages. Mice were provided continuously with sterile food, water and bedding. Nicotinamide riboside (NR) (custom synthesized as triflate salt by Novalix in Strasbourg) was supplied in the food at 0.4 g/Kg mouse and mice were treated for 1 and 4 weeks respectively.

[2] = system: HSC mitochondrial activity; test: In vitro HSC mitochondrial activity with JC1 and TMRM dyes; type: cell-based, mouse
Text: The effects of NR on HSC mitochondrial activity has been assessed by measuring mitochondrial activity using JC1 (Mantel et al., 2010, Cell Cycle, 9(10), 2008-17) and TMRM dyes (Vannini et al., 2015, in preparation; Nakada et al., 2010, Nature, 468, 653-658).
The effect of agents on HSC mitochondrial activity has been assessed by measuring mitochondrial activity as described in Example 7 above.

human hematopoiesis = test: Human hematopoiesis in humanized NSG mice fed NR-supplemented diet; type: in vivo, human CD34+ cells in NSG mice; conditions: supplemented diet for one week
Text: NOD scid gamma (NSG) mice which are a mouse strain NOD Cg-Prkdcscid Il2rgtm1Wjl/SzJ (005557) which correspond to a mutant mouse which combines the features of the NOD/ShiLtJ background (conferring a number of deficiencies in innate immunity), the severe combined immune deficiency mutation (SCID) and an IL2 receptor gamma chain deficiency which disables cytokine signaling, were purchased from The Jackson Laboratory and bred, treated, and maintained under pathogen-free conditions in-house. New-born NSG mice were irradiated with 1Gy and 6 hours later injected intra-hepatically (IH) with 10e6 human CD34 HSCs (purified CD34+ from mobilized blood, Cellsystems Biotechnologie GmbH, Troisdorf, DE). The level of human reconstitution (% of human CD45+ cells) was analyzed 12 weeks later by FACS staining of tail vein blood samples. […] From the following day one cohort was given low fat food supplemented with NR as compared to the group treated with NA or Acipimox (n=10-12 mice/group), as indicated above, and the other cohort was given control diet. After seven days, tail vein blood was collected in EDTA tubes and mice sacrificed. Bone marrow cells were collected as described for C57BL6 mice, and both blood and bone marrow cells stained and analyzed for a panel of human lineage specific antibodies as described. […]

[3] = system: blood recovery and survival of transplanted mice; test: Survival and blood recovery of lethally irradiated, transplanted mice treated with the agent; type: in vivo, mouse; conditions: for blood recovery of post-transplanted mice (platelets, granulocytes/neutrophils): Example 8, FIG. 9D, treated recipients versus control
Protocol: Given the dependency of differentiated hematopoietic cells to the progenitor compartments, the effect of a mitochondrial membrane potential reducing agent according to the invention, in particular NR, in improving blood recovery and survival of transplanted mice was assessed. Peripheral blood count started at day 13 after transplantation, and it was repeated every 3 or 4 days.
as §1

[4] = system: HSC activity of donor bone marrow; test: Transplantation of BM derived from agent-treated donor mice (engraftment, blood chimerism); type: in vivo, mouse; conditions: for short-term HSC activity of transplanted BM from treated donors (blood chimerism): Example 8, FIG. 9C, compared to control group
Text: Therefore, NR-treatment is not expected to exhaust the LT-HSC population, which is often the problem when increasing short-term HSCs and their progeny.

HSCs [5] = test: Single cell proliferation kinetics and division synchrony by time-lapse microscopy; type: cell-based, mouse; conditions: single cell level
Protocol: Furthermore, at single cell level the effect of NR on cell proliferation kinetics was determined as described previously ([…] et al., 2012, supra). […] To follow the behavior of HSCs at single cell level, cells were sorted directly into 96-well plates coated with microwell arrays. Microwells containing a single cell at the time of plating were tracked by time-lapse microscopy. Proliferation kinetics were assessed using a Zeiss Axio Observer microscope equipped with an incubator chamber, temperature and CO2 control. Images were automatically acquired every three hours over five days using the imaging analysis software of MetaMorph (Visitron, Germany). Hydrogel microwell arrays were directly casted within individual wells of a 96-well plate as described (Kobel et al., 2009, Langmuir, 25(15):8774-9; Lutolf et al., 2009, Integr Biol (Camb), 1(1):59-69). Briefly, stoichiometrically balanced aqueous solutions of multi-arm poly(ethylene glycol) (PEG), end-functionalized with thiol and vinylsulfone groups were mixed and molded against a PDMS microstamp. Upon completion of crosslinking, the stamp was removed and the hydrogel microwell array was hydrated overnight at 4° C. and then sterilized with ultraviolet light.

[6] = system: hematopoietic progenitor compartments; test: Colony-forming functional assay (CFUs, Methocult) on BM derived from agent-treated mice; type: in vivo, mouse
[7] = system: HSC mitochondrial activity; test: In vivo assay of HSC mitochondrial activity: TMRM flow cytometry of freshly isolated HSC from mice fed the compounds; parameters: species or system mouse
Text: The effect of agents on HSC mitochondrial activity has been assessed by measuring mitochondrial activity in vivo: freshly isolated HSC from mice fed with the compounds were stained by TMRM and analyzed by flow cytometry.

HSCs [8] = test: In vivo activation of HSC by IFN-α, cell cycle (Ki67) and ΔΨm analysis; parameters: species or system mouse
Protocol: In order to verify this hypothesis, cell cycle phase analyses were performed using Ki67 and Hoechst staining as described below on freshly isolated HSCs that were separated into low and high ΔΨm. […] Under homeostatic conditions, quiescent state, corresponding to ca. 70% of cells, and cycling HSCs have indistinguishable ΔΨm profiles.
A similar analysis was performed on HSCs that were activated to exit dormancy directly in vivo using interferon-alpha (IFN-α) treatment of mice (Essers et al., 2009, Nature 458, 904-908) through subcutaneous injections of IFN-α carried out 48 and 24 hours prior to cell isolation.
HSC were activated to exit dormancy by interferon-alpha (IFN-α) treatment following published protocols (Essers et al., 2009, supra). Briefly, subcutaneous injections in C57B1/6J mice were carried out with 10,000 U of IFN-α (R&D systems) 48 and 24 hours prior to bone marrow extraction. Control mice were injected with an equivalent volume of the vehicle (PBS+0.1% BSA).

Which results are given for NC(=O)c1ccc[n+]([C@@H]2O[C@H](CO)[C@@H](O)[C@H]2O)c1 [NR, nicotinamide riboside]?
hematopoietic stem and progenitor compartments in BM ([1]; 1 week treatment through the food, flow cytometry): increased cellularity is observed in all hematopoietic progenitor compartments; hematopoietic progenitor compartments in BM ([1]; 4 weeks treatment through the food, flow cytometry): only the short-term compartment (ST-HSC) is expanded; number of hematopoietic stem cells (ST-HSC / most primitive HSC) by flow cytometry [1]: expanded ST-HSC compartment; HSC pool ([1]; short- and long-term treatment): not accompanied by a reduction of the HSC pool; mitochondrial activity of HSCs ([2]; HSCs exposed in vitro, JC1 and TMRM): robust decrease in mitochondrial activity; proportion of cells with low mitochondrial activity ([2]; dividing HSCs in vitro): raised the proportion of cells with low mitochondrial activity; percentage of cells with high mitochondrial activity ([2]; in vitro, compared to control conditions): reduces the percentage of cells with high mitochondrial activity to half; percentage of HSC daughters that maintain a low mitochondrial activity ([2]; in vitro, control about 5%): about 10%; human lymphocyte production (human hematopoiesis): significant increase in lymphocyte production; human monocyte production (human hematopoiesis): trend towards increased monocyte production; blood recovery of post-transplanted mice (platelets, granulocytes/neutrophils) [3]: faster exit of neutropenia and thrombocytopenia; survival of transplanted mice ([3]; limiting-dose transplanted mice, all untreated mice died within one month): 80%; exit of neutropenia (neutrophils >0.5 G/l) relative to controls ([3]; transplanted mice, on average): one week before controls; recovery from severe thrombocytopenia (platelet count >100 G/l) earlier relative to control mice ([3]; transplanted mice, on average): 10 days; neutrophil and platelet recovery ([3]; transplanted mice, peripheral blood counts from day 13): faster neutrophil and platelet recovery; engraftment of BM derived from treated mice ([4]; 1-month treated donor mice, transplantation assay): do not show engraftment advantage; short-term HSC activity of transplanted BM from treated donors (blood chimerism) [4]: higher ST-HSC activity; asynchronous division (HSCs [5]): significant increase in asynchronous division; proliferation kinetics (HSCs [5]): do not have a major change in their proliferation kinetics; colonies in CFUs assay from BM of treated mice ([6]; 1 and 4 weeks treatment, especially short-term treated mice): confirmed the expansion of hematopoietic progenitor compartments; lineage of most striking colony increase ([6]; CFUs from BM of treated mice): most striking in the Mk lineage; progenitor population / total and myeloid colonies in CFUs from BM of treated mice ([6]; Example 8, FIG. 9B): expanded progenitor population; number of short-term HSCs with low mitochondrial activity ([7]; freshly isolated HSC from fed mice, TMRM, FIG. 12): able to push the number of short-term HSCs with low mitochondrial activity very significantly

With Cc1cnc(C(=O)O)c[n+]1[O-] [Acipimox, acipimox, reference compound] as the compound, how does the “blood recovery of post-transplanted mice (platelets, granulocytes/neutrophils)” value [3] read?
The value was “slower platelet and granulocyte recovery”.

What about the “short-term HSC activity of transplanted BM from treated donors (blood chimerism)” value [4] of the same compound?
Its value is “no significant difference”.

How did the “number of hematopoietic stem cells (ST-HSC / most primitive HSC) by flow cytometry” value [1] turn out when O=C(O)c1cccnc1 [NA, nicotinic acid, reference compound] was run?
The value was “do not show a significant difference”.

And the “Megakaryocytes (MkE) colonies” value ([6]; Example 8, FIG. 9B)?
The value was “reduction of Megakaryocytes (MkE) colonies”.

And the “progenitor population / total and myeloid colonies in CFUs from BM of treated mice” value ([6]; Example 8, FIG. 9B)?
The value was “do not show a significant difference in total and myeloid colonies”.

And the “ability to reduce mitochondrial membrane potential in HSCs” value ([7]; mice fed with the compounds)?
The value was “not able to significantly reduce mitochondrial membrane potential in HSCs”.

Which results are given for IFN-α?
ΔΨm levels of quiescent versus cycling HSCs (HSCs [8]; after IFN-α treatment, MitoTracker Deep Red): not significantly different; number of cycling (Ki67+) HSCs (HSCs [8]; subcutaneous injections 48 and 24 hours prior to cell isolation, control ca. 30): ~50%
